# Assay results from patent US9926304B2, “1-(arylmethyl)quinazoline-2,4(1H,3H)-diones as PARP inhibitors and the use thereof” (Impact Therapeutics, Inc., priority 2011, dated 2018).
# Where a name gives a salt, the structure may show the parent alone. Read-outs that look alike come from different tables or passages of the source.
# Columns and labels:
# [1] = test system: SW620 human colorectal cancer cells; assay: MTT based cell viability assay: potentiation of the growth inhibiting activity of MMS
# Protocol: Briefly, SW620 human colorectal cancer cells were used to measure the cell growth inhibiting activity of DNA alkylating anticancer drug MMS. […] SW620 cells were grown and maintained in RPMI1640 (Gibco) medium supplemented with 10% FBS (Hyclone). In the first day of experiment, 4000 cells were seeded to each well of a 96-well cell culture plate and incubated at 37° C. and 5% CO2 in a cell culture incubator overnight. In the next day, the cell culture medium was removed. […] The serial dilutions of the reference compounds and the compounds to be tested were made with a 1:3 and 1:10 fashion in DMSO. The 10-fold concentrated solutions of these compounds were made by mixing 10 μl of the serial dilutions in DMSO with 90 μl fresh medium. The final concentration of DMSO in the medium was 1%. The cells were incubated at 37° C. in 5% CO2 cell culture incubator for additional 5 days (120 hours). Afterwards, the 96-well cell culture plate was taken out and 20 μl of MTT solution was added to each well and incubated at 37° C. for 4 h. The medium was removed and 100 μl DMSO was added to each well. The 96-well cell culture plates were shaked adequately for 10 min and read in a Varioskan Flash plate reader (Thermo Fisher Scientific) at 520 and 690 nm. The data were analyzed by Prism 5 software (GraphPad). The obtained 520 nm absorbance readings subtracting corresponding 690 nm reading were analyzed and plotted against the Log scale of the compound concentrations.
# [2] = test system: Human breast cancer cell line T47D; assay: Cell based caspase-3 activity assay: potentiation of MMS induced apoptosis; conditions: T47D cells, 11.1 μg/ml MMS, 24 hours, intracellular caspase-3 activity, read-out: EC50 (nM), potentiation of the apoptosis inducing activity of MMS
# Outline: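 T47D cells were exposed for 24 h to compound plus a minimally apoptotic MMS dose (medium containing 11.1 μg/ml MMS). Lysates were incubated 3 h at 37 °C with (Ac-DEVD)2-R110 caspase-3 substrate (20 μM in added buffer) and read at ex 496/em 520 nm. EC50 came from a sigmoidal fit of RFU versus log concentration.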
# [3] = Homo sapiens, SW-620, 120 h, read-out: IC50 (nM), potentiation of the growth inhibiting activity of MMS, SW620 cells, 1.7 μg/ml MMS, 5 days (120 hours), MTT
# [4] = read-out: IC50 (nM), potentiation of the growth inhibiting activity of MMS, SW620 cells, 1.7 μg/ml MMS, 5 days (120 hours), MTT
compound,measurement,setting,value
"O=C(Cc1ccc2ccccc2c1)Nc1cccc(Cn2c(=O)[nH]c(=O)c3ccccc32)c1 [Example 196, 1-(3-(Naphthalen-2-yl)acetamidobenzyl)quinazoline-2,4(1H,3H)-dione]",IC50,[1]; [3],985 nM
same,EC50,"[2]; Homo sapiens, T47D, 24 h",> 10000 nM
"O=C(c1ccsc1)N1CCN(C(=O)c2cccc(Cn3c(=O)[nH]c(=O)c4ccccc43)c2)CC1 [Example 35, 1-(3-(4-(Thiophene-3-carbonyl)piperazine-1-carbonyl)benzyl)quinazoline-2,4(1H,3H)-dione]",IC50,[1]; [3],265 nM
same,EC50,"[2]; Homo sapiens, T47D, 24 h",238 nM
"O=C(c1cccc(Cn2c(=O)[nH]c(=O)c3c(F)cccc32)c1)N1CCN(c2ccccn2)CC1 [Example 130, 5-Fluoro-1-(3-(4-(pyridin-2-yl)piperazine-1-carbonyl)benzyl)quinazoline-2,4(1H,3H)-dione]",IC50,[1]; [3],15 nM
same,EC50,"[2]; Homo sapiens, T47D, 24 h",87 nM
"O=C(c1cc(Cn2c(=O)[nH]c(=O)c3c(F)cccc32)ccc1F)N1CCN(c2ncccn2)CC1 [Example 193, 5-Fluoro-1-(4-fluoro-3-(4-(pyrimidin-2-yl)piperazine-1-carbonyl)benzyl)quinazoline-2,4(1H,3H)-dione hydrochloride]",IC50,"[1]; read-out: IC50 (nM), potentiation of the growth inhibiting activity of MMS, SW620 cells, 1.7 μg/ml MMS, 5 days (120 hours), MTT, hydrochloride",4.5 nM
same,EC50,[2]; hydrochloride,1.6 nM
"O=c1[nH]c(=O)n(Cc2cccc(CN3CCN(c4ccccn4)CC3)c2)c2ccccc12 [Example 195, 1-(3-((4-(Pyridin-2-yl)piperazin-1-yl)methyl)benzyl)quinazoline-2,4(1H,3H)-dione]",IC50,[1]; [3],1440 nM
same,EC50,"[2]; Homo sapiens, T47D, 24 h",471 nM
"O=C(c1cccc(Cn2c(=O)[nH]c(=O)c3cc([N+](=O)[O-])ccc32)c1)N1CCN(C(=O)C2CCCC2)CC1 [Example 90, 1-(3-(4-(Cyclopentylcarbonyl)piperazine-1-carbonyl)benzyl)-6-nitroquinazoline-2,4(1H,3H)-dione]",IC50,[1]; [3],> 10000 nM
same,EC50,"[2]; Homo sapiens, T47D, 24 h",4170 nM
"O=C(c1cccc(Cn2c(=O)[nH]c(=O)c3cc([N+](=O)[O-])ccc32)c1)N1CCN(c2ncccn2)CC1 [Example 91, 6-Nitro-1-(3-(4-(pyrimidin-2-yl)piperazine-1-carbonyl)benzyl)quinazoline-2,4 (1H,3H)-dione]",IC50,[1]; [3],> 10000 nM
same,EC50,"[2]; Homo sapiens, T47D, 24 h",1990 nM
"O=C(c1cc(Cn2c(=O)[nH]c(=O)c3c(F)cccc32)ccc1Br)N1CCN(c2ncccn2)CC1 [Example 215, 1-(4-Bromo-3-(4-(pyrimidin-2-yl)piperazine-1-carbonyl)benzyl)-5-fluoroquinazoline-2,4(1H,3H)-dione]",IC50,[1]; [3],1390 nM
same,EC50,"[2]; Homo sapiens, T47D, 24 h",743 nM
"O=C(c1ccc(F)cc1)N1CCN(C(=O)c2ccc(Cn3c(=O)[nH]c(=O)c4ccccc43)cc2)CC1 [Example 96, 1-(4-(4-(4-Fluorobenzoyl)piperazine-1-carbonyl)benzyl)quinazoline-2,4(1H,3H)-dione]",IC50,[1]; [3],> 10000 nM
same,EC50,"[2]; Homo sapiens, T47D, 24 h",> 10000 nM
"O=C(c1cccc(Cn2c(=O)[nH]c(=O)c3ccccc32)n1)N1CCN(c2ncccn2)CC1 [Example 71, 1-((2-(4-(Pyrimidin-2-yl)piperazine-1-carbonyl)pyridin-6-yl)methyl)quinazoline-2,4(1H,3H)-dione]",IC50,[1]; [3],70 nM
same,EC50,"[2]; Homo sapiens, T47D, 24 h",67 nM
"O=C(c1ccc(F)c(Cn2c(=O)[nH]c(=O)c3ccccc32)c1)N1CCN(C(=O)C2CCC2)CC1 [Example 53, 1-(3-(4-(Cyclobutylcarbonyl)piperazine-1-carbonyl)-6-fluorobenzyl)quinazoline-2,4(1H,3H)-dione]",IC50,[1]; [3],59 nM
same,EC50,"[2]; Homo sapiens, T47D, 24 h",18 nM
"O=C(c1cccc(Cn2c(=O)[nH]c(=O)c3ccccc32)c1)N1CCN(c2ccc3nncn3n2)CC1 [Example 6, 1-(3-(4-([1,2,4]Triazolo[4,3-b]pyridazin-6-yl)piperazine-1-carbonyl)benzyl)quinazoline-2,4(1H,3H)-dione]",IC50,[1]; [3],7030 nM
same,EC50,"[2]; Homo sapiens, T47D, 24 h",2520 nM
"O=C(c1cccc(Cn2c(=O)[nH]c(=O)c3cc(F)ccc32)c1)N1CCN(C(=O)c2cccs2)CC1 [Example 141, 6-Fluoro-1-(3-(4-(thiophene-2-carbonyl)piperazine-1-carbonyl)benzyl)quinazoline-2,4(1H,3H)-dione]",IC50,[1]; [3],12 nM
same,EC50,"[2]; Homo sapiens, T47D, 24 h",13 nM
"O=C(c1cccc(Cn2c(=O)[nH]c(=O)c3ccccc32)c1)N1CCN(C(=O)C2CCOCC2)CC1 [Example 13, 1-(3-(4-(Tetrahydro-2H-pyran-4-carbonyl)piperazine-1-carbonyl)benzyl)quinazoline-2,4(1H,3H)-dione]",IC50,[1]; [3],727 nM
same,EC50,"[2]; Homo sapiens, T47D, 24 h",6600 nM
"CC(=O)N1CCN(C(=O)c2cccc(Cn3c(=O)[nH]c(=O)c4ccccc43)c2)CC1 [Example 17, 1-(3-(4-Acetylpiperazine-1-carbonyl)benzyl)quinazoline-2,4(1H,3H)-dione]",IC50,[1]; [3],> 10000 nM
same,EC50,"[2]; Homo sapiens, T47D, 24 h",5020 nM
"O=C(c1cccnc1)N1CCN(C(=O)c2cccc(Cn3c(=O)[nH]c(=O)c4ccccc43)c2)CC1 [Example 36, 1-(3-(4-(Pyridine-3-carbonyl)piperazine-1-carbonyl)benzyl)quinazoline-2,4(1H,3H)-dione]",IC50,[1]; [3],> 10000 nM
same,EC50,"[2]; Homo sapiens, T47D, 24 h",> 10000 nM
"O=C(c1cccc(Cn2c(=O)[nH]c(=O)c3ccccc32)c1F)N1CCN(c2ncccn2)CC1 [Example 61, 1-(2-Fluoro-3-(4-(pyrimidin-2-yl)piperazine-1-carbonyl)benzyl)quinazoline-2,4(1H,3H)-dione]",IC50,[1]; [3],61 nM
same,EC50,"[2]; Homo sapiens, T47D, 24 h",17 nM
"O=C(c1ccccc1)N1CCN(C(=O)c2ccc(Cn3c(=O)[nH]c(=O)c4ccccc43)cc2)CC1 [Example 93, 1-(4-(4-Benzoylpiperazine-1-carbonyl)benzyl)quinazoline-2,4(1H,3H)-dione]",IC50,[1]; [3],> 10000 nM
same,EC50,"[2]; Homo sapiens, T47D, 24 h",> 10000 nM
"1-(3-(4-Phenylpiperidine-1-carbonyl)benzyl)quinazoline-2,4(1H,3H)-dione [Example 18]",IC50,[1]; [4],> 10000 nM
same,EC50,[2],> 10000 nM
"C[C@]1(c2nc3c(C(N)=O)cccc3[nH]2)CCCN1 [ABT-888, reference compound]",IC50,[1]; [4],2640 nM
same,EC50,[2],3490 nM
"O=C(c1ccc(Cn2c(=O)[nH]c(=O)c3ccccc32)o1)N1CCN(C(=O)C2CCCC2)CC1 [Example 67, 1-((2-(4-(Cyclopentylcarbonyl)piperazine-1-carbonyl)furan-5-yl)methyl)quinazoline-2,4(1H,3H)-dione]",IC50,[1]; [3],2050 nM
same,EC50,"[2]; Homo sapiens, T47D, 24 h",4820 nM
"O=C(c1ccc(F)c(Cn2c(=O)[nH]c(=O)c3cc(Cl)ccc32)c1)N1CCN(C(=O)c2cccs2)CC1 [Example 126, 6-Chloro-1-(6-fluoro-3-(4-(thiophene-2-carbonyl)piperazine-1-carbonyl)benzyl)quinazoline-2,4(1H,3H)-dione]",IC50,[1]; [3],18 nM
same,EC50,"[2]; Homo sapiens, T47D, 24 h",6.5 nM
"1-(3-(5-Bromopyrimidin-2-aminocarbamoyl)-4-fluorobenzyl)-5-fluoroquinazoline-2,4(1H,3H)-dione [Example 205]",IC50,[1]; [4],> 10000 nM
same,EC50,[2],> 10000 nM
"O=C(NCc1ccccc1)c1cc(Cn2c(=O)[nH]c(=O)c3c(F)cccc32)ccc1F [Example 202, 1-(3-(Benzylcarbamoyl)-4-fluorobenzyl)-5-fluoroquinazoline-2,4(1H,3H)-dione]",IC50,[1]; [3],> 10000 nM
same,EC50,"[2]; Homo sapiens, T47D, 24 h",> 10000 nM
"O=C(c1ccc(Br)cc1)N1CCN(C(=O)c2ccc(Cn3c(=O)[nH]c(=O)c4ccccc43)cc2)CC1 [Example 98, 1-(4-(4-(4-Bromobenzoyl)piperazine-1-carbonyl)benzyl)quinazoline-2,4(1H,3H)-dione]",IC50,[1]; [3],> 10000 nM
same,EC50,"[2]; Homo sapiens, T47D, 24 h",> 10000 nM
